Measured values published in the CheMixHub viscosity set.

Test: xn = mol fraction of the nth substance listed

CCOCCO + O
viscosity [mPa·s]
Settings	101 kPa	101.33 kPa
293.15 K, x1 = 0.02202	1.422	–
293.15 K, x1 = 0.04761	2.02	–
293.15 K, x1 = 0.07883	2.731	–
293.15 K, x1 = 0.1177	3.402	–
293.15 K, x1 = 0.1666	3.943	–
293.15 K, x1 = 0.2304	4.205	–
293.15 K, x1 = 0.318	4.219	–
293.15 K, x1 = 0.4441	3.838	–
293.15 K, x1 = 0.5303	3.471	–
293.15 K, x1 = 0.6418	3.081	–
293.15 K, x1 = 0.7202	2.836	–
293.15 K, x1 = 0.8271	2.502	–
293.15 K, x1 = 0.9078	2.27	–
298.15 K, x1 = 0.0104	–	1.04
298.15 K, x1 = 0.0217	–	1.25
298.15 K, x1 = 0.0341	–	1.44
298.15 K, x1 = 0.0476	–	1.7
298.15 K, x1 = 0.0625	–	1.97
298.15 K, x1 = 0.0789	–	2.26
298.15 K, x1 = 0.0972	–	2.54
298.15 K, x1 = 0.1176	–	2.8
298.15 K, x1 = 0.1406	–	3.05
298.15 K, x1 = 0.1666	–	3.24
298.15 K, x1 = 0.1964	–	3.38
298.15 K, x1 = 0.2307	–	3.48
298.15 K, x1 = 0.2707	–	3.47
298.15 K, x1 = 0.3181	–	3.45
298.15 K, x1 = 0.3749	–	3.33
298.15 K, x1 = 0.4443	–	3.14
298.15 K, x1 = 0.5311	–	2.89
298.15 K, x1 = 0.6428	–	2.58
298.15 K, x1 = 0.7916	–	2.19
298.15 K, x2 = 0.11	–	1.991
298.15 K, x2 = 0.2089	–	2.215
298.15 K, x2 = 0.294	–	2.441
298.15 K, x2 = 0.4058	–	2.765
298.15 K, x2 = 0.5043	–	3.031
298.15 K, x2 = 0.5995	–	3.311
298.15 K, x2 = 0.7033	–	3.504
298.15 K, x2 = 0.8037	–	3.376
298.15 K, x2 = 0.902	–	2.55
303.15 K, x1 = 0.0104	–	0.92
303.15 K, x1 = 0.0217	–	1.11
303.15 K, x1 = 0.02202	1.097	–
303.15 K, x1 = 0.0341	–	1.27
303.15 K, x1 = 0.0476	–	1.5
303.15 K, x1 = 0.04761	1.485	–
303.15 K, x1 = 0.0625	–	1.72
303.15 K, x1 = 0.07883	1.928	–
303.15 K, x1 = 0.0789	–	1.96
303.15 K, x1 = 0.0972	–	2.18
303.15 K, x1 = 0.1176	–	2.4
303.15 K, x1 = 0.1177	2.355	–
303.15 K, x1 = 0.1406	–	2.61
303.15 K, x1 = 0.1666	2.703	2.78
303.15 K, x1 = 0.1964	–	2.9
303.15 K, x1 = 0.2304	2.92	–
303.15 K, x1 = 0.2307	–	3
303.15 K, x1 = 0.2707	–	3.03
303.15 K, x1 = 0.318	2.951	–
303.15 K, x1 = 0.3181	–	3.02
303.15 K, x1 = 0.3749	–	2.93
303.15 K, x1 = 0.4443	–	2.77
303.15 K, x1 = 0.5303	2.547	–
303.15 K, x1 = 0.5311	–	2.56
303.15 K, x1 = 0.6418	2.28	–
303.15 K, x1 = 0.6428	–	2.31
303.15 K, x1 = 0.7202	2.126	–
303.15 K, x1 = 0.7916	–	1.97
303.15 K, x1 = 0.8271	1.912	–
303.15 K, x1 = 0.9078	1.764	–
308.15 K, x1 = 0.1406	–	2.24
308.15 K, x1 = 0.1666	–	2.38
308.15 K, x1 = 0.1964	–	2.49
308.15 K, x1 = 0.2307	–	2.58
308.15 K, x1 = 0.2707	–	2.62
308.15 K, x1 = 0.3181	–	2.61
308.15 K, x1 = 0.3749	–	2.55
308.15 K, x1 = 0.4443	–	2.43
308.15 K, x1 = 0.5311	–	2.26
308.15 K, x1 = 0.6428	–	2.04
308.15 K, x1 = 0.7916	–	1.76
308.15 K, x2 = 0.1041	–	1.418
308.15 K, x2 = 0.1944	–	1.621
308.15 K, x2 = 0.2933	–	1.785
308.15 K, x2 = 0.4988	–	2.148
308.15 K, x2 = 0.5964	–	2.307
308.15 K, x2 = 0.699	–	2.385
308.15 K, x2 = 0.7918	–	2.32
308.15 K, x2 = 0.8469	–	2.111
308.15 K, x2 = 0.8976	–	1.787
308.15 K, x2 = 0.9491	–	1.279
313.15 K, x1 = 0.02202	0.8665	–
313.15 K, x1 = 0.04761	1.14	–
313.15 K, x1 = 0.07883	1.456	–
313.15 K, x1 = 0.1177	1.727	–
313.15 K, x1 = 0.1666	1.967	–
313.15 K, x1 = 0.2304	2.124	–
313.15 K, x1 = 0.318	2.14	–
313.15 K, x1 = 0.4441	2.011	–
313.15 K, x1 = 0.5303	1.9	–
313.15 K, x1 = 0.6418	1.731	–
313.15 K, x1 = 0.7202	1.614	–
313.15 K, x1 = 0.8271	1.491	–
313.15 K, x1 = 0.9078	1.399	–
323.15 K, x1 = 0.02202	0.6974	–
323.15 K, x1 = 0.04761	0.8748	–
323.15 K, x1 = 0.07883	1.105	–
323.15 K, x1 = 0.1177	1.32	–
323.15 K, x1 = 0.1666	1.479	–
323.15 K, x1 = 0.2304	1.613	–
323.15 K, x1 = 0.318	1.656	–
323.15 K, x1 = 0.4441	1.591	–
323.15 K, x1 = 0.5303	1.514	–
323.15 K, x1 = 0.6418	1.398	–
323.15 K, x1 = 0.7202	1.324	–
323.15 K, x1 = 0.8271	1.212	–
323.15 K, x1 = 0.9078	1.133	–

NCCCC[C@H](N)C(=O)[O-].[K+] + O
viscosity [mPa·s]
Settings	293.15 K	298.15 K	303.15 K	308.15 K	313.15 K	318.15 K	323.15 K
100 kPa, x1 = 0.01	–	1.138	–	–	–	–	–
100 kPa, x1 = 0.02	–	1.642	–	–	–	–	–
101.3 kPa, x1 = 0.00479	1.183	1.051	0.9411	0.847	0.7675	0.7007	0.6435
101.3 kPa, x1 = 0.00923	1.393	1.226	1.092	0.9834	0.8868	0.8069	0.7376
101.3 kPa, x1 = 0.015	1.599	1.408	1.251	1.12	1.01	0.916	0.8358
101.3 kPa, x1 = 0.01985	1.92	1.683	1.49	1.328	1.194	1.077	0.9784
101.3 kPa, x1 = 0.03254	2.783	2.408	2.108	1.861	1.655	1.483	1.337
101.3 kPa, x1 = 0.0375	2.961	2.59	2.233	1.989	1.744	1.577	1.404
101.3 kPa, x1 = 0.0395	–	–	1.868	–	1.448	–	1.128
101.3 kPa, x1 = 0.04425	4.174	–	3.071	–	2.351	2.094	1.872
101.3 kPa, x1 = 0.0501	4.177	3.576	3.074	2.687	2.353	2.092	1.861
101.3 kPa, x1 = 0.0595	–	–	3.237	–	2.45	–	1.863
101.3 kPa, x1 = 0.06157	6.645	5.544	4.71	4.049	3.517	3.081	2.722
101.3 kPa, x1 = 0.0617	5.683	4.806	4.086	3.537	3.072	2.71	2.394
101.3 kPa, x1 = 0.0705	7.066	5.922	4.999	4.299	3.709	3.251	2.858
101.3 kPa, x1 = 0.0741	7.638	6.379	5.359	4.594	3.949	3.453	3.025
101.3 kPa, x1 = 0.0855	–	–	4.606	–	3.452	–	2.598

CC(C)CCO + c1ccccc1
viscosity [mPa·s], 101 kPa
Settings	293.15 K	298.15 K	303.15 K	308.15 K	313.15 K	318.15 K	323.15 K
x1 = 0.05	0.673	0.627	0.586	0.548	0.515	0.484	0.456
x1 = 0.1	0.705	0.656	0.612	0.573	0.537	0.505	0.475
x1 = 0.15	0.739	0.688	0.641	0.6	0.562	0.527	0.496
x1 = 0.2	0.777	0.723	0.673	0.629	0.589	0.552	0.519
x1 = 0.25	0.819	0.761	0.708	0.661	0.618	0.58	0.544
x1 = 0.3	0.866	0.804	0.748	0.697	0.651	0.61	0.572
x1 = 0.35	0.919	0.852	0.791	0.737	0.688	0.643	0.602
x1 = 0.4	0.979	0.906	0.84	0.782	0.728	0.68	0.636
x1 = 0.45	1.046	0.967	0.896	0.832	0.774	0.722	0.674
x1 = 0.5	1.124	1.037	0.96	0.89	0.826	0.769	0.717
x1 = 0.55	1.214	1.119	1.033	0.956	0.886	0.823	0.766
x1 = 0.6	1.321	1.214	1.118	1.032	0.955	0.885	0.822
x1 = 0.65	1.447	1.326	1.219	1.122	1.036	0.957	0.887
x1 = 0.7	1.6	1.462	1.339	1.23	1.131	1.042	0.962
x1 = 0.75	1.789	1.629	–	–	–	–	–
